Blank lines part the entries; values can stand above or below the compound they belong to.
What was measured:
[1] = Determination of the water solubility of activators; type: physicochemical; details: for Water solubility / miscibility with water (words): in words, temperature not stated
Method: The water solubility of N,N,O-triacetylethanolamine (TAEA) and ethylidene benzoate acetate (EBA) was determined by known methods.

[2] = Perhydrolysis rate of dissolved activator (titration of total active oxygen and peracid); details: for Perhydrolysis rate / release of peracid: in words, with hydrogen peroxide or percompounds; for time required for 90% conversion of activator: predissolved activator
Method: The experimental determination of the perhydrolysis rate of the activators TAEA (triacetylethanolamine), TAED (tetraacetylethylenediamine) and isonobs (sodium isononanoyloxybenzenesulfonate) was carried out under wash conditions in a 2 1 beaker in a thermostat. An electrical stirrer ensured uniform stirring of a 2 percent strength solution of an IEC standard detergent composition, to which perborate had been added together with 20 ml of a cherry juice solution as a bleachable stain.
The activators were predissolved in a little water and added to the abovementioned temperature controlled washing liquor. At each set time interval (1-5 minutes) a 50 ml sample was removed and titrated for total active oxygen and peracid.
pH dependence of perhydrolysis of dissolved bleach activators at 22° C.; time required [min] for 90% conversion of activator: […]

[3] = Wash tests in Launder-O-meter at 60° C., tea stain
[4] = Washing tests in Launder-O-meter at room temperature, tea stain; details: 25° C.
[5] = background discussion; cited from earlier work

Water solubility (infinite, unit not given) ([1]; 23° C.): .infin. | Water solubility (infinite, unit not given) ([1]; 37° C.): .infin.
Compound: CC(=O)OCCN(C(C)=O)C(C)=O [TAEA, N,N,O-triacetylethanolamine]
Water solubility / miscibility with water (words) [1]: complete miscibility of the compound with water | Water solubility / miscibility with water (words) ([1]; listed as triacetylethanolamine): has the best water solubility and is miscible with water in any proportion | Perhydrolysis rate / release of peracid [2]: releases one mole of peracetic acid very rapidly, in fact as rapidly as predissolved TAED | Perhydrolysis rate / release of peracid ([2]; listed as Triacetylethanolamine (TAEA)): readily reacts in aqueous solution with hydrogen peroxide or inorganic persalts to form peracetic acid | time required for 90% conversion of activator ([2]; pH 9, 22° C.): 12 min | time required for 90% conversion of activator ([2]; pH 10, 22° C.): 7 min | time required for 90% conversion of activator ([2]; pH 11, 22° C.): 1 min | bleaching performance ([3]; tea and red wine stains): superior in bleaching performance to previously known EDA and to non-liquid DALEA | bleaching effect ([4]; tea and red wine stains): superior bleaching effect

Water solubility ([1]; 23° C.): 700 µg/mL | Water solubility ([1]; 37° C.): 800 µg/mL
Compound: CC(=O)OC(C)OC(=O)c1ccccc1 (stereo not shown) [EBA, ethylidene benzoate acetate]
Solubility in water (words, prior-art activator) [5]: limited solubility in water

Compound: sodium perborate [PB]
Reflectance values ([3]; tea stain, 30 minutes, 25 mg active oxygen per liter, 1.5 g IEC basic washing powder per liter): 62.9 | Reflectance ([4]; tea stain, 15 minutes, 3% activator and 10% sodium perborate): 52.8

Compound: CC(CC(=O)Oc1ccc(S(=O)(=O)[O-])cc1)CC(C)(C)C.[Na+] (stereo not shown) [Isonobs, sodium isononanoyloxybenzenesulfonate]
time required for 90% conversion of activator ([2]; pH 9, 22° C.): > 30 min | time required for 90% conversion of activator ([2]; pH 10, 22° C.): 11 min | time required for 90% conversion of activator ([2]; pH 11, 22° C.): 1.5 min

Compound: CC(=O)N(CCN(C(C)=O)C(C)=O)C(C)=O [TAED, tetraacetylethylenediamine]
time required for 90% conversion of activator ([2]; pH 9, 22° C.): 15 min | time required for 90% conversion of activator ([2]; pH 10, 22° C.): 7 min | time required for 90% conversion of activator ([2]; pH 11, 22° C.): 1 min

Source: patent publication US5045222A, “Use of triacylated ethanolamines as liquid, water-miscible peroxide activators” (Hoechst Aktiengesellschaft, priority 1988, dated 1991)
